The term Km denotes the concentration of substrate that gives half-maximal velocity. The term Vmax denotes the rate approached at saturating substrate.

The nature of series [1]: Compound was evaluated for the kinetic parameter (Km). The class given is ADME.
The nature of series [2]: Compound was evaluated for the kinetic parameter Vmax (maximum velocity). It counts as ADME.

Turning to `N[C@@H](CCC(=O)O)C(=O)O` [GLUTAMIC ACID], the Michaelis-Menten constant (Km) in series [1] worked out at 1.65 µM. In series [2], the maximum rate (Vmax) was 18.3 pM/min/mg.

The record behind these values is ChEMBL document CHEMBL1131969, “Quinoline-2,4-dicarboxylic acids: synthesis and evaluation as inhibitors of the glutamate vesicular transport system” (Bioorg Med Chem Lett, 1999).
